Holding throughout (assay): relative viability (nuclei count vs DMSO), 5 days (fraction); higher = more cells survive
Compound in the assay “Metformin + Luminespib”: CN(C)C(=N)NC(=N)N [Metformin] + CCNC(=O)c1noc(-c2cc(C(C)C)c(O)cc2O)c1-c1ccc(CN2CCOCC2)cc1 [Luminespib] (partner 0.01 µM)
The gist of the method:
(§1)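 Relative viability is defined as nuclei in treated wells over nuclei in vehicle wells. Duplicate plates were run and medians reported. Lung cancer cell lines in 1536-well plates were dosed by pin tool one day after seeding, with one drug or with a fixed anchor-drug dose plus five library-drug doses (not always all listed) in √10 steps, and nuclei were counted after 5 days.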

Compound in the assay “Metformin + Crizotinib”: CN(C)C(=N)NC(=N)N [Metformin] + C[C@@H](Oc1cc(-c2cnn(C3CCNCC3)c2)cnc1N)c1c(Cl)ccc(F)c1Cl [Crizotinib] (partner 1 µM)
The method in brief: as §1

Compound in the assay “Metformin + Pemetrexed”: CN(C)C(=N)NC(=N)N [Metformin] + Nc1nc2[nH]cc(CCc3ccc(C(=O)N[C@@H](CCC(=O)O)C(=O)O)cc3)c2c(=O)[nH]1 [Pemetrexed] (partner 0.2 µM)
The gist of the method:
as §1

Compound in the assay “Apatinib + OSI-027”: N#CC1(c2ccc(NC(=O)c3cccnc3NCc3ccncc3)cc2)CCCC1 [Apatinib] + COc1cccc2cc(-c3nc([C@H]4CC[C@H](C(=O)O)CC4)n4ncnc(N)c34)[nH]c12 [OSI-027] (partner 0.5 µM)
The gist of the method:
as §1

Data on 6 cell lines can be found in the supplement of paper PMC10307832.

NCI-H661: the relative viability came out at 0.844 in the assay with Metformin + Luminespib (first compound 10 µM); 0.837 with Metformin + Luminespib (first compound 31.62 µM); 0.876 with Metformin + Luminespib (first compound 100 µM); 0.807 in the assay with Metformin + Luminespib (first compound 316.23 µM); 0.354 with Metformin + Luminespib (first compound 1000 µM); 0.848 in the assay with Metformin + Crizotinib (first compound 31.62 µM). For the same cell line, the relative viability is 0.843 with Metformin + Crizotinib (first compound 100 µM); 0.885 in the assay with Metformin + Crizotinib (first compound 316.23 µM); 0.8 with Metformin + Crizotinib (first compound 1000 µM); 0.9 with Metformin + Pemetrexed (first compound 10 µM); 0.934 in the assay with Metformin + Pemetrexed (first compound 31.62 µM); 0.877 with Metformin + Pemetrexed (first compound 100 µM). Further, the relative viability with Metformin + Pemetrexed (first compound 316.23 µM) came out at 0.858; in the assay with Metformin + Pemetrexed (first compound 1000 µM), 0.879; with Apatinib + OSI-027 (first compound 0.08 µM), 0.678; with Apatinib + OSI-027 (first compound 0.253 µM), 0.603; with Apatinib + OSI-027 (first compound 0.8 µM) it was 0.693; in the assay with Apatinib + OSI-027 (first compound 2.53 µM), 0.705. The relative viability with Apatinib + OSI-027 (first compound 8 µM) was determined as 0.603.

Take NCI-H838: the relative viability with Metformin + Luminespib (first compound 10 µM) came out at 0.258; in the assay with Metformin + Luminespib (first compound 31.62 µM) it was 0.289; with Metformin + Luminespib (first compound 100 µM) it was 0.291; with Metformin + Luminespib (first compound 316.23 µM), 0.237; in the assay with Metformin + Luminespib (first compound 1000 µM) it was 0.251; with Metformin + Crizotinib (first compound 10 µM), 0.815. In addition, the relative viability with Metformin + Crizotinib (first compound 31.62 µM) turned out to be 0.814; with Metformin + Crizotinib (first compound 100 µM) it was 0.875; in the assay with Metformin + Crizotinib (first compound 316.23 µM), 0.864; with Metformin + Crizotinib (first compound 1000 µM) it was 0.854; with Metformin + Pemetrexed (first compound 10 µM) it was 0.28; in the assay with Metformin + Pemetrexed (first compound 31.62 µM), 0.266. Moreover, the relative viability turned out to be 0.278 in the assay with Metformin + Pemetrexed (first compound 100 µM); 0.266 in the assay with Metformin + Pemetrexed (first compound 316.23 µM); 0.271 with Metformin + Pemetrexed (first compound 1000 µM); 0.456 with Apatinib + OSI-027 (first compound 0.08 µM); 0.393 with Apatinib + OSI-027 (first compound 0.253 µM); 0.361 with Apatinib + OSI-027 (first compound 0.8 µM). The values for the relative viability with Apatinib + OSI-027 (first compound 2.53 µM) and with Apatinib + OSI-027 (first compound 8 µM) were 0.357 and 0.422, respectively.

With NCI-H1355, the relative viability in the assay with Metformin + Luminespib (first compound 10 µM) was 0.752; in the assay with Metformin + Luminespib (first compound 31.62 µM), 0.704; with Metformin + Luminespib (first compound 100 µM), 0.768; with Metformin + Luminespib (first compound 316.23 µM), 0.701; in the assay with Metformin + Luminespib (first compound 1000 µM), 0.752; with Metformin + Crizotinib (first compound 10 µM) it was 1.01. Also, the relative viability in the assay with Metformin + Crizotinib (first compound 31.62 µM) was 1.06; in the assay with Metformin + Crizotinib (first compound 100 µM), 1.03; with Metformin + Crizotinib (first compound 316.23 µM), 0.986; with Metformin + Crizotinib (first compound 1000 µM), 1.11; with Metformin + Pemetrexed (first compound 10 µM), 0.942; in the assay with Metformin + Pemetrexed (first compound 31.62 µM), 1.02. Further, the relative viability worked out at 1.02 with Metformin + Pemetrexed (first compound 100 µM); 1 with Metformin + Pemetrexed (first compound 316.23 µM); 0.94 with Metformin + Pemetrexed (first compound 1000 µM); 0.391 with Apatinib + OSI-027 (first compound 0.08 µM); 0.396 in the assay with Apatinib + OSI-027 (first compound 0.253 µM); 0.394 in the assay with Apatinib + OSI-027 (first compound 0.8 µM). Also, the values for the relative viability with Apatinib + OSI-027 (first compound 2.53 µM) and with Apatinib + OSI-027 (first compound 8 µM) were 0.374 and 0.364, respectively.

On to NCI-H1437, for which the relative viability with Metformin + Luminespib (first compound 10 µM) came out at 1.15; with Metformin + Luminespib (first compound 31.62 µM), 1.16; in the assay with Metformin + Luminespib (first compound 100 µM) it was 1.19; in the assay with Metformin + Luminespib (first compound 316.23 µM), 1.08; in the assay with Metformin + Luminespib (first compound 1000 µM), 1.12; with Metformin + Crizotinib (first compound 10 µM), 0.931. Besides, the relative viability with Metformin + Crizotinib (first compound 31.62 µM) is 0.918; with Metformin + Crizotinib (first compound 100 µM), 0.935; with Metformin + Crizotinib (first compound 316.23 µM) it was 0.898; with Metformin + Crizotinib (first compound 1000 µM), 0.902; with Metformin + Pemetrexed (first compound 10 µM) it was 0.347; in the assay with Metformin + Pemetrexed (first compound 31.62 µM) it was 0.336. The relative viability with Metformin + Pemetrexed (first compound 100 µM) came out at 0.343; with Metformin + Pemetrexed (first compound 316.23 µM) it was 0.352; in the assay with Metformin + Pemetrexed (first compound 1000 µM), 0.317; with Apatinib + OSI-027 (first compound 0.08 µM), 0.84; with Apatinib + OSI-027 (first compound 0.253 µM), 0.954; with Apatinib + OSI-027 (first compound 0.8 µM), 0.861. Besides, the results for the relative viability with Apatinib + OSI-027 (first compound 2.53 µM) and with Apatinib + OSI-027 (first compound 8 µM) were 0.615 and 0.645, respectively.

As for NCI-H1563, the relative viability with Metformin + Luminespib (first compound 10 µM) is 0.588; in the assay with Metformin + Luminespib (first compound 31.62 µM), 0.629; with Metformin + Luminespib (first compound 100 µM), 0.577; in the assay with Metformin + Luminespib (first compound 316.23 µM), 0.407; with Metformin + Luminespib (first compound 1000 µM) it was 0.584; with Metformin + Crizotinib (first compound 10 µM) it was 0.855. The relative viability came to 0.889 with Metformin + Crizotinib (first compound 31.62 µM); 0.865 in the assay with Metformin + Crizotinib (first compound 100 µM); 0.793 with Metformin + Crizotinib (first compound 316.23 µM); 0.827 with Metformin + Crizotinib (first compound 1000 µM); 0.874 with Metformin + Pemetrexed (first compound 10 µM); 0.899 in the assay with Metformin + Pemetrexed (first compound 31.62 µM). The relative viability in the assay with Metformin + Pemetrexed (first compound 100 µM) worked out at 0.847; with Metformin + Pemetrexed (first compound 316.23 µM), 0.89; with Metformin + Pemetrexed (first compound 1000 µM), 0.921; in the assay with Apatinib + OSI-027 (first compound 0.08 µM), 0.812; with Apatinib + OSI-027 (first compound 0.253 µM), 0.865; in the assay with Apatinib + OSI-027 (first compound 0.8 µM), 0.731. In addition, the relative viability came out at 0.706 in the assay with Apatinib + OSI-027 (first compound 2.53 µM) and 0.718 in the assay with Apatinib + OSI-027 (first compound 8 µM).

As to NCI-H1650, the relative viability in the assay with Metformin + Luminespib (first compound 10 µM) came out at 0.189; with Metformin + Luminespib (first compound 31.62 µM), 0.212; in the assay with Metformin + Luminespib (first compound 100 µM), 0.203; with Metformin + Luminespib (first compound 316.23 µM), 0.218; with Metformin + Luminespib (first compound 1000 µM), 0.218; with Metformin + Crizotinib (first compound 10 µM) it was 0.961. For the same cell line, the relative viability with Metformin + Crizotinib (first compound 31.62 µM) amounted to 0.855; with Metformin + Crizotinib (first compound 100 µM) it was 1.04; with Metformin + Crizotinib (first compound 316.23 µM) it was 0.877; with Metformin + Crizotinib (first compound 1000 µM) it was 0.82; with Metformin + Pemetrexed (first compound 10 µM) it was 0.398; with Metformin + Pemetrexed (first compound 31.62 µM) it was 0.428. For the same cell line, the relative viability with Metformin + Pemetrexed (first compound 100 µM) came to 0.388; with Metformin + Pemetrexed (first compound 316.23 µM), 0.404; with Metformin + Pemetrexed (first compound 1000 µM) it was 0.301; in the assay with Apatinib + OSI-027 (first compound 0.253 µM), 0.776; with Apatinib + OSI-027 (first compound 0.8 µM) it was 0.456; in the assay with Apatinib + OSI-027 (first compound 2.53 µM), 0.463. In addition, the relative viability in the assay with Apatinib + OSI-027 (first compound 8 µM) came to 0.541.
